# Data: patent US11787826B2, “Hydrocarbyl tin complex of alkynyl phosphonic acid with antitumor activity and application thereof” (priority 2020, dated 2023)
# Read-outs that look alike come from different tables or passages of the source.
# Columns and labels:
# Assay type in all cases: cell-based
# [1] = system: A549 (human lung cancer cells)
# Description: (§1) MCF-7, HT-29, A549 and HepG2 cells are got from American Tissue Culture Collection, which are cultured with the culture medium containing 10% bovine fetal serum in a CO2-containing incubator at 37° C. MTT method is used to detect cell proliferation and growth inhibition. The number of experimental cells is adjusted to obtain the absorbance at 570 nm. 6 concentrations are set for the compound test solution (0.1 nmol/L˜10 μmol/L). The cells are treated for 72 hours. At least 3 parallel experiments and 3 repeated experiments are conducted for each concentration. The IC50 value is determined by statistical analysis.
# (§2) Taking cisplatin as the contrast, the in vitro growth inhibitory activity of Compound 1 and Compound 2 on tumor cells are tested, including MCF7 (human breast cancer cells), HT-29 (human colon cancer cells), A549 (human lung cancer cells) and HepG2 (liver cancer cells).
# [2] = system: HT-29 (human colon cancer cells)
# Description: as §1, §2
# [3] = system: HepG2 (liver cancer cells)
# Description: as §1, §2
# [4] = system: MCF7 (human breast cancer cells)
# Description: as §1, §2
# [5] = A549 cells, MTT, 72 hours treatment
# [6] = HT-29 cells, MTT, 72 hours treatment
# [7] = HepG2 cells, MTT, 72 hours treatment
# [8] = MCF7 cells, MTT, 72 hours treatment
Compound,"IC50 [1, 5] [nM]","IC50 [2, 6] [nM]","IC50 [3, 7] [nM]","IC50 [4, 8] [nM]",IC50 [1] [nM],IC50 [2] [nM],IC50 [3] [nM],IC50 [4] [nM]
"N.N.[Cl][Pt][Cl] [Cisplatin, cisplatin, reference compound]",1300,35000,17000,43000,,,,
"Tri-n-butyltin (IV) (3,5-dimethylphenyl) Acetylenyl Phosphonic Acid Derivatives [Compound 1]",33,635,211,194,,,,
tri-n-butyltin (IV) (3-Trifluoromethyl Phenyl) acetylenyl phosphonic acid derivatives [Compound 2],,,,,274,962,872,1730
